Laboratory results: US9598416B2, “Substituted benzothienyl-pyrrolotriazines and uses thereof in the treatment cancer” (Bayer Intellectual Property GmbH, priority 2011, dated 2017)
Counter-ions that a name gives are not always drawn. Like-named read-outs stand apart in the source and are kept apart here.

Columns and labels:
[1] = target: human FGFR-3 (Homo sapiens (Human), UniProt P22607); test: FGFR-3 kinase assay (TR-FRET); type: biochemical; conditions: 10 μM ATP; compounds of the invention
[2] = target: human mTOR (Homo sapiens (Human), UniProt P42345); test: mTOR kinase assay (TR-FRET, for comparative purposes); type: biochemical; conditions: for inhibition at 1 µM: read-out: mTOR % inhibition @ 1 μM
Sequence of human mTOR (P42345 1360-2549): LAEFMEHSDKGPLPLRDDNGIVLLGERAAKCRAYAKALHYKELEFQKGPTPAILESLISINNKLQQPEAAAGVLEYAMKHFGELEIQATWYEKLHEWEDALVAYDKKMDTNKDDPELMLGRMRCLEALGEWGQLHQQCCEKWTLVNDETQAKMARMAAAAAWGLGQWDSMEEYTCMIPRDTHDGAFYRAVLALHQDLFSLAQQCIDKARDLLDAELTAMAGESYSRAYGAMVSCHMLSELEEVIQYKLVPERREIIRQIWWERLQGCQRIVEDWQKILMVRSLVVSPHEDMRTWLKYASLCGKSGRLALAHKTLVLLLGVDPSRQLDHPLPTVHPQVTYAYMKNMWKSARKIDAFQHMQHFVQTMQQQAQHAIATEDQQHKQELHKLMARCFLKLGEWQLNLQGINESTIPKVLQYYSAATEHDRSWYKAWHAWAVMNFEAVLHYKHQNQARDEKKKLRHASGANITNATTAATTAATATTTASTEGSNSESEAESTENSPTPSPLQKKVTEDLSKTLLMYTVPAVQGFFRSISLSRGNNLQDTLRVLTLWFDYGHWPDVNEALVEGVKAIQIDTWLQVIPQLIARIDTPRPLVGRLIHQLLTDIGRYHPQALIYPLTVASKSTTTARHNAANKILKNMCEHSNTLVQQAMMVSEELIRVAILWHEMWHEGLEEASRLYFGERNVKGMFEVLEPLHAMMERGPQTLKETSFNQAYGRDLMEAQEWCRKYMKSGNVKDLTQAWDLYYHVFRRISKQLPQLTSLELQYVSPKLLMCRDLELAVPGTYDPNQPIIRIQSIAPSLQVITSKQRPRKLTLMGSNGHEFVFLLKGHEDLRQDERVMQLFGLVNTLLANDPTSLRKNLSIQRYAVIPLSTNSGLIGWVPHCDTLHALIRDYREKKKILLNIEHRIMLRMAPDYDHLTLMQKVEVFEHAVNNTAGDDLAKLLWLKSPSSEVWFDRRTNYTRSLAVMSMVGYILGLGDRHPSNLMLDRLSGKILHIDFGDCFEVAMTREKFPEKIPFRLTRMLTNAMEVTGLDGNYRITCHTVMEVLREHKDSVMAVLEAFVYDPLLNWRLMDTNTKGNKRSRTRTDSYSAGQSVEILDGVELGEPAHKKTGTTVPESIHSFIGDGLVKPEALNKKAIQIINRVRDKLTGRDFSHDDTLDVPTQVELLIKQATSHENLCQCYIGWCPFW
From the text: mTOR inhibitory activity of the compounds of the present invention was quantified employing the TR-FRET based mTOR assay as described in the following paragraphs: Recombinant fusion tagged mTOR protein [glutathione-S-transferase (GST) fused to human mTOR amino acids from 1360 to 2549], expressed in insect cells and purified by glutathione-sepharose affinity chromatography, was purchased from Invitrogen (Cat.-No. 4753) and used as enzyme. As substrate for the kinase reaction, a recombinant fusion protein of GFP and 4E-BP1 (purchased from Invitrogen, Cat.-No. PV4759) was used. Test compounds were dissolved in DMSO to generate 10 mM stock solutions. […] The resulting mixture was incubated for 1 h at 22° C. to allow formation of the complex between the phosphorylated substrate and the Tb-chelate labelled antibody. Subsequently, the amount of phosphorylated substrate was evaluated by measurement of the resonance energy transfer from the Tb-chelate to the GFP. For this, the fluorescence emissions at 495 nm and 520 nm after excitation at 340 nm was measured in an Envision 2104 multilabel reader (Perkin-Elmer). The ratio of the emissions at 520 nm and at 495 nm was taken as the measure for the amount of phosphorylated substrate.

[3] = 1 μM test compound, mean inhibition values

Sequence of human FGFR-3 (P22607 397-806): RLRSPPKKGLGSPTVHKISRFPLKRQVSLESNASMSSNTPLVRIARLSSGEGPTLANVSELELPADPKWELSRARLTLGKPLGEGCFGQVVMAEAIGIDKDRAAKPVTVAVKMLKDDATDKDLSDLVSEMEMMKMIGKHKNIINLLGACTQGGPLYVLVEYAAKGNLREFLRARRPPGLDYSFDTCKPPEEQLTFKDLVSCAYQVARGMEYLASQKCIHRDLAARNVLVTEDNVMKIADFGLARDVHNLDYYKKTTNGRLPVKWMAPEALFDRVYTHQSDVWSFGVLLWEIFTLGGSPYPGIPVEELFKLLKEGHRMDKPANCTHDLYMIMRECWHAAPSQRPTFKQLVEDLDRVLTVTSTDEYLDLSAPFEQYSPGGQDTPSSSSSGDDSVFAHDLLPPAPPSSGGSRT

Compound	IC50 [1]	also measured
COc1cc(C)cc2cc(-c3c(CN4CCC(O)C4)cn4ncnc(N)c34)sc12 (racemic) [Example 18, rac-1-{[4-Amino-5-(7-methoxy-5-methyl-1-benzothiophen-2-yl)pyrrolo[2,1-f][1,2,4]triazin-6-yl]-methyl}pyrrolidin-3-ol dihydrochloride]	1.3 nM	mTOR % inhibition @ 1 μM [2, 3]: no inhib. effect detect.
COc1cc(C)cc2cc(-c3c(CN4CCCC4C(N)=O)cn4ncnc(N)c34)sc12 (racemic) [Example 19, rac-1-{[4-Amino-5-(7-methoxy-5-methyl-1-benzothiophen-2-yl)pyrrolo[2,1-f][1,2,4]triazin-6-yl]-methyl}prolinamide dihydrochloride]	11.2 nM	inhibition at 1 µM [2]: 1.8%
COc1cc(C)cc2cc(-c3c(CNCC(C)O)cn4ncnc(N)c34)sc12 (racemic) [Example 26, rac-1-({[4-Amino-5-(7-methoxy-5-methyl-1-benzothiophen-2-yl)pyrrolo[2,1-f][1,2,4]triazin-6-yl]-methyl}amino)propan-2-ol dihydrochloride]		mTOR % inhibition @ 1 μM [2, 3]: no inhib. effect detect.
COc1cc(C)cc2cc(-c3c(COCCCO)cn4ncnc(N)c34)sc12 [Example 1, 3-{[4-Amino-5-(7-methoxy-5-methyl-1-benzothiophen-2-yl)pyrrolo[2,1-f][1,2,4]triazin-6-yl]-methoxy}propan-1-ol hydrochloride]	18.2 nM	inhibition at 1 µM [2]: 1.9%
COc1cc(C)cc2cc(-c3c(CO[C@@H](C)CO)cn4ncnc(N)c34)sc12 [Example 3, (2S)-2-{[4-Amino-5-(7-methoxy-5-methyl-1-benzothiophen-2-yl)pyrrolo[2,1-f][1,2,4]triazin-6-yl]-methoxy}propan-1-ol]	4.2 nM	inhibition at 1 µM [2, 3]: 2.5%
COc1cc(C)cc2cc(-c3c(COCC(=O)O)cn4ncnc(N)c34)sc12 [Example 5, {[4-Amino-5-(7-methoxy-5-methyl-1-benzothiophen-2-yl)pyrrolo[2,1-f][1,2,4]triazin-6-yl]-methoxy}acetic acid]	72.4 nM	inhibition at 1 µM [2, 3]: 2.7%
COc1cc(C)cc2cc(-c3c(COCCO)cn4ncnc(N)c34)sc12 [Example 7, 2-{[4-Amino-5-(7-methoxy-5-methyl-1-benzothiophen-2-yl)pyrrolo[2,1-f][1,2,4]triazin-6-yl]-methoxy}ethanol hydrochloride]	5.8 nM	inhibition at 1 µM [2]: 4.7%
COc1cc(C)cc2cc(-c3c(COCCN)cn4ncnc(N)c34)sc12 [Example 8, 6-[(2-Aminoethoxy)methyl]-5-(7-methoxy-5-methyl-1-benzothiophen-2-yl)pyrrolo[2,14][1,2,4]-triazin-4-amine dihydrochloride]	0.2 nM	inhibition at 1 µM [2, 3]: 4.7%
COc1cc(C)cc2cc(-c3c(CO)cn4ncnc(N)c34)sc12 [Example 32, [4-Amino-5-(7-methoxy-5-methyl-1-benzothiophen-2-yl)pyrrolo[2,1-f][1,2,4]triazin-6-yl]methanol]		mTOR % inhibition @ 1 μM [2, 3]: no inhib. effect detect.
COc1cc(OC)c2sc(-c3c(CN4CCNC(=O)C4)cn4ncnc(N)c34)cc2c1 [Example 33, 4-{[4-Amino-5-(5,7-dimethoxy-1-benzothiophen-2-yl)pyrrolo[2,1-f][1,2,4]triazin-6-yl]methyl}-piperazin-2-one]	1.8 nM	
COc1cc(C)cc2cc(-c3c(COCC#N)cn4ncnc(N)c34)sc12 [Example 40]	9.1 nM	
COc1cc(C)cc2cc(-c3c(COCCCC#N)cn4ncnc(N)c34)sc12 [Example 41]	12.7 nM	
COc1cc(C)cc2cc(-c3c(COCCN4CCCC4)cn4ncnc(N)c34)sc12 [Example 43]	10.7 nM	
COc1cc(C)cc2cc(-c3c(COCCN4CCCCC4)cn4ncnc(N)c34)sc12 [Example 44]	9.3 nM	
COc1cc(C)cc2cc(-c3c(CN4CCCC4)cn4ncnc(N)c34)sc12 [Example 47]	1 nM	
COc1cc(C)cc2cc(-c3c(CNC4CC4)cn4ncnc(N)c34)sc12 [Example 48]	3.6 nM	
COc1cc(C)cc2cc(-c3c(CN4CCCCC4)cn4ncnc(N)c34)sc12 [Example 51]	0.7 nM	
COc1cc(C)cc2cc(-c3c(CN4CCCOCC4)cn4ncnc(N)c34)sc12 [Example 54]	2.3 nM	
COc1cc(C)cc2cc(-c3c(CN(C)C4CCS(=O)(=O)C4)cn4ncnc(N)c34)sc12 (centres unmarked) [Example 57]	3 nM	
COc1cc(C)cc2cc(-c3c(CN4CCN(C5CC5)CC4)cn4ncnc(N)c34)sc12 [Example 58]	6.2 nM	
COc1cc(C)cc2cc(-c3c(CN(C)CC(C)OC)cn4ncnc(N)c34)sc12 (centres unmarked) [Example 59]	4 nM	
COc1cc(C)cc2cc(-c3c(CN4CCC(OC)CC4)cn4ncnc(N)c34)sc12 [Example 60]	12.5 nM	
COc1cc(C)cc2cc(-c3c(CN4CC[C@H](N(C)C)C4)cn4ncnc(N)c34)sc12 [Example 66]	0.5 nM	
COc1cc(C)cc2cc(-c3c(CN4CCCN(C)CC4)cn4ncnc(N)c34)sc12 [Example 68]	0.8 nM	
COc1cc(C)cc2cc(-c3c(CN4CCCC(C(N)=O)C4)cn4ncnc(N)c34)sc12 (centres unmarked) [Example 69]	4.4 nM	
COCCN(C)Cc1cn2ncnc(N)c2c1-c1cc2cc(C)cc(OC)c2s1 [Example 70]	7.4 nM	
COc1cc(C)cc2cc(-c3c(CN4CCS(=O)(=O)CC4)cn4ncnc(N)c34)sc12 [Example 77]	15.3 nM	

The next lines start with results.

IC50 [1]	Compound	also measured
11.6 nM	COc1cc(C)cc2cc(-c3c(CNC(C)C(N)=O)cn4ncnc(N)c34)sc12 (racemic) [Example 12, rac-N^2-{[4-Amino-5-(7-methoxy-5-methyl-1-benzothiophen-2-yl)pyrrolo[2,1-f][1,2,4]triazin-6-yl]-methyl}alaninamide]	inhibition at 1 µM [2, 3]: 7.2%
2.2 nM	COc1cc(C)cc2cc(-c3c(COC[C@H](C)O)cn4ncnc(N)c34)sc12 [Example 2, (2S)-1-{[4-Amino-5-(7-methoxy-5-methyl-1-benzothiophen-2-yl)pyrrolo[2,1-f][1,2,4]triazin-6-yl]-methoxy}propan-2-ol]	inhibition at 1 µM [2, 3]: 6.1%
49.9 nM	CCOC(=O)COCc1cn2ncnc(N)c2c1-c1cc2cc(C)cc(OC)c2s1 [Example 4, Ethyl {[4-amino-5-(7-methoxy-5-methyl-1-benzothiophen-2-yl)pyrrolo[2,1-f][1,2,4]triazin-6-yl]-methoxy}acetate]	inhibition at 1 µM [2, 3]: 8.4%
4.4 nM	COc1cc(C)cc2cc(-c3c(COCC(N)=O)cn4ncnc(N)c34)sc12 [Example 6, 2-{[4-Amino-5-(7-methoxy-5-methyl-1-benzothiophen-2-yl)pyrrolo[2,1-f][1,2,4]triazin-6-yl]-methoxy}acetamide]	inhibition at 1 µM [2, 3]: 11.3%
0.2 nM	COc1cc(C)cc2cc(-c3c(CNC(C)=O)cn4ncnc(N)c34)sc12 [Example 9, N-{[4-Amino-5-(7-methoxy-5-methyl-1-benzothiophen-2-yl)pyrrolo[2,1-f][1,2,4]triazin-6-yl]-methyl}acetamide]	mTOR % inhibition @ 1 μM [2, 3]: no inhib. effect detect.
30 nM	COc1cc(C)cc2cc(-c3c(COCCN4CCOCC4)cn4ncnc(N)c34)sc12 [Example 42]	
24.8 nM	COc1cc(C)cc2cc(-c3c(COCCCN(C)C)cn4ncnc(N)c34)sc12 [Example 45]	
14.2 nM	COCCN(Cc1cn2ncnc(N)c2c1-c1cc2cc(C)cc(OC)c2s1)C(C)C [Example 49]	
0.1 nM	COc1cc(C)cc2cc(-c3c(CN4CCN(C)CC4)cn4ncnc(N)c34)sc12 [Example 50]	
3.8 nM	COc1cc(C)cc2cc(-c3c(CN4CCOC(C)(C)C4)cn4ncnc(N)c34)sc12 [Example 52]	
15.1 nM	COc1cc(C)cc2cc(-c3c(CN4CC(OC)C4)cn4ncnc(N)c34)sc12 [Example 53]	
1.4 nM	COc1cc(C)cc2cc(-c3c(CN4CCNC(=O)C4C)cn4ncnc(N)c34)sc12 (centres unmarked) [Example 55]	
3.1 nM	COc1cc(C)cc2cc(-c3c(CN4CNC(=O)C4)cn4ncnc(N)c34)sc12 [Example 56]	
14.6 nM	COc1cc(C)cc2cc(-c3c(CN(C)CC(F)(F)F)cn4ncnc(N)c34)sc12 [Example 61]	
2.6 nM	COc1cc(C)cc2cc(-c3c(CN4CCCC(OC)C4)cn4ncnc(N)c34)sc12 (centres unmarked) [Example 62]	
3 nM	COc1cc(C)cc2cc(-c3c(CN4CCC(F)(F)C4)cn4ncnc(N)c34)sc12 [Example 63]	
1.1 nM	COc1cc(C)cc2cc(-c3c(CN4CCC(C(N)=O)CC4)cn4ncnc(N)c34)sc12 [Example 64]	
0.6 nM	COc1cc(C)cc2cc(-c3c(CN4CC[C@@H](N(C)C)C4)cn4ncnc(N)c34)sc12 [Example 65]	
0.6 nM	COc1cc(C)cc2cc(-c3c(CN4CCCC(N(C)C)C4)cn4ncnc(N)c34)sc12 (centres unmarked) [Example 67]	
5.5 nM	COc1cc(C)cc2cc(-c3c(CNC4CCS(=O)(=O)C4)cn4ncnc(N)c34)sc12 (centres unmarked) [Example 72]	
2.3 nM	COc1cc(C)cc2cc(-c3c(CNC4CCOC4)cn4ncnc(N)c34)sc12 (centres unmarked) [Example 73]	
5 nM	CCC(C)NCc1cn2ncnc(N)c2c1-c1cc2cc(C)cc(OC)c2s1 (centres unmarked) [Example 74]	
4.9 nM	COc1cc(C)cc2cc(-c3c(CN4CCOC(C)C4)cn4ncnc(N)c34)sc12 (centres unmarked) [Example 76]	
